Some results are limits rather than exact numbers.

Data set [1] deals with patients with moderate, but not mild Alzheimer's disease. Conditions: 36-week study; cited from earlier work.
Data set [2] relates to mild to moderate Alzheimer patients. The note with it: 78-week study; cited from earlier work.
Data set [3] can be described thus: liver microsome stability. Format: in vitro ADME, Mouse. In general terms: Microsomes from liver hold many membrane-bound enzymes, among them those of drug oxidation.
Data set [4] deals with Primary rat cultured cortical neurons. Conditions: cited from earlier work.
The test system of a further data set is patients with mild AD. The note with it: 12 weeks; cited from earlier work.
The test system of the next data set is CaCo-2 cells. Nature of the data set: in vitro permeability of a layer of CaCo-2 cells. Type of data set: in vitro ADME, human. Conditions: for mean A−>B Papp (apparent permeability): test conc 50 μM. (Caco-2 monolayers are a common model of the intestinal barrier.)
For another data set, the system named is Rat cortical neurons. The experiment in a line: neurite network assessment with Aβ1-42 oligomers in cortical cell culture. Format: cell-based. The procedure: Rat cortical neurons were cultured as described by Callizot et al (J Neurosci Res 2013, 91:706-716). On day 11 of culture, Aβ oligomer solution, 20 μM, was applied. The Aβ oligomer preparation, having an average weight of 90 kDa, prepared as described by Callizot et al (op cit) contained only diffusible species, not fibrils or protofibrils. Briefly, Aβ1-42 peptide at a concentration of 40 μM was dissolved in the culture medium, gently agitated for 3 days at 37° C. in the dark, and used immediately after dilution. SDL 11349 and BDNF (50 ng/ml) were dissolved in culture medium (maximum of 0.1% DMSO final concentration) then pre-incubated with primary cortical neurons for 24 h before the Aβ1-42 oligomer solution application.
The oligomers were incubated with the neurons and various concentrations of SDL 11349, or BDNF, 50 ng/ml, the positive control, for 24 hours, in 6 replicates per condition. Then the supernatant was removed and the neurons were fixed with a cold ethanol and acetic acid solution. The cells were permeabilized with 0.1% saponin and then incubated for 2 h with mouse monoclonal antibody […] microtubule-associated protein 2 (MAP-2). Subsequently, Alexa-Fluor 488 goat anti-mouse IgG was applied, and images were obtained and analyzed automatically.

The target in data set [5] is T1, acetylcholinesterase (Homo sapiens, UniProt P22303). The note with it: read-out: IC50 for acetylcholinesterase inhibition; cited from earlier work.
T1 sequence (P22303 32-614, species assumed): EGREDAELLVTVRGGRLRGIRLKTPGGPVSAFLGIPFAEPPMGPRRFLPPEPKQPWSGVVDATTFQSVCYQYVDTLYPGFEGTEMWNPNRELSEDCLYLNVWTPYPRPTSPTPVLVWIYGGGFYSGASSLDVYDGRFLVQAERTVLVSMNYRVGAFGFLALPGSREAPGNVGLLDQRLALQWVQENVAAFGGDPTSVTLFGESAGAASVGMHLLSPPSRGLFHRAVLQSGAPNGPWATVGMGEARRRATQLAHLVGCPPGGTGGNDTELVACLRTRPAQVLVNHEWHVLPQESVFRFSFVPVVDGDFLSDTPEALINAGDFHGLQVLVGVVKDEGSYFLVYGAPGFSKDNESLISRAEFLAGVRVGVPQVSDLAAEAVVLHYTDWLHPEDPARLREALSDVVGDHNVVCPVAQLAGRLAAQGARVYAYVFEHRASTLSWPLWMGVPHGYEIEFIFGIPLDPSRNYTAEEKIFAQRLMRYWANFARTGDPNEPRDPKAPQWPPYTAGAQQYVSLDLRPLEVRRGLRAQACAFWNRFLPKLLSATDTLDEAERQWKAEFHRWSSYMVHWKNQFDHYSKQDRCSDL
The test system of a further data set is mice. The note with it: cited from earlier work.
Data set [6] deals with T1, acetylcholinesterase. The experiment in a line: acetylcholinesterase inhibition. Type of data set: biochemical. From the text: This compound was first described in Han et al as a cholinesterase inhibitor in Bioorg. & Medicinal Chemistry Letters 1, 11 579-580 (1991).
A further data set deals with Bv-2 microglial cells. The experiment in a line: Abeta 1-42 oligomer clearance in microglial Bv-2 cell culture. Format: cell-based. The note with it: applied for 24 hours, 0.11 to 0.67 μM; oligomerized Aβ1-42 10 μM for 6 h. The procedure: Abeta oligomers were prepared using beta-amyioid (1-42) from American Peptide (Product #62-0-80). One aliquot was dissolved in an adequate volume of TBS (50 mM Tris-Buffer, 150 mM NaCl, pH=7.4) to achieve a final concentration of 1.7 mg/ml (corresponding to 340 μM). The solution was sonicated for 2 minutes and then diluted 1:2 in water to obtain a final concentration of 170 μM. Next, the Abeta was allowed to aggregate at 4′C for 48 hours. Prior to application, the solution was sonicated for another minute.
Bv-2 microglial cells were kept in culture medium (DMEM medium, 10% FBS, 2 mM glutamine, 1% Penc/Strep) until 80-90% confluency. Cells were maintained at 37° C., 95% humidity and 5% CO2. Afterwards, cells were seeded in culture medium on 24-well plates at a cell density of 1×10^5 cells per well. After 24 h, the medium was exchanged for the treatment medium (DMEM medium, 5% FBS, 2 mM glutamine). […] The medium was separated by affinity (removing monomers) and the oligomers not phagocytosed were disaggregated by HFIP treatment and measured by MSD. […]
The immune assay was carried out according to the manual and plates were read on the Sector Imager (MSD). Analyte levels were evaluated according to adequate Aβ peptide standards (MSD). […] Group differences are evaluated by one-way ANOVA.

The nature of data set [7]: stability in mouse plasma.
In data set [8] the test system is Mice with lesions of the nucleus basalis magnocellularis (nBm). The note with it: cited from earlier work.
The next data set addresses T2, α7 nicotinic receptors (Rattus norvegicus, UniProt Q05941).
T2 construct: Primary cultured rat neurons can be depolarized by the application of 1.5 mM choline; endogenous in cells; host or cells: primary cultured rat neurons
The note with it: cited from earlier work.

Data set [9] relates to CA1 pyramidal neurons in the dorsal hippocampus. Nature of the data set: dendritic spine assessment after 5 days ip treatment. Format: in vivo, mice. The procedure:
Adult C57B16 mice, (8 weeks old) were administered vehicle or SDL 11349, 0.005, 0.03, 0.07, 0.1 or 0.2 mg/kg, ip, per day for five days prior to sacrifice after rapid anesthetization with isofluorane. Brain tissue was sectioned into […] slices from anterior to posterior extremes.
Ballistic dye labelling was performed, followed by laser-scanning confocal microscopy (Olympus FV1000) using a 63× objective (1.42 NA) to scan individually labelled neurons at high resolution (0.103×0.103×0.33 μm voxels). Target neurons were identified in the brain region of interest by anatomical location and cell morphology. Microscopy was performed blind to experimental conditions. A minimum of 5 samples per animal were measured for each segment.
Blind deconvolution (AutoQuant) was applied to raw three-dimensional digital images which were then analyzed for spine density and morphology by trained analysts. Individual spines were measured manually for (a) head diameter, (b) length, and (c) neck thickness from image Z-stacks using custom-built Afraxis ESP software. Each dendrite was analyzed by 3 independent analysts.
Automated image assignment software (C++) distributed images to analysts in a randomized manner and ensured that each analyst performed measurements of near equal numbers of dendrites per group. Analysts were blinded to all experimental conditions. […] For spine density and spine morphological classification, data across analysts were averaged to report data for each dendrite. Data population values (N's) were reported from dendrites collected equally from all mice.
Values are reported in tables and plots as group means±standard errors of the mean (SEMs). For all group comparisons of parametric values, statistical significance was determined using the analysis of variance test (ANOVA; SPSS). Post-hoc comparisons were assessed using the Student's t-test (2 tails). […]
Dendritic spine morphology was analyzed from samples taken from secondary apical dendrites, and secondary basal dendrites of CA1 pyramidal neurons in the dorsal hippocampus. […] A 50 μm segment was analyzed from each location.

The conditions of data set [10]: 78-week study; cited from earlier work.
Data set [11] deals with γ-secretase. The note with it: cited from earlier work.
The test system of data set [12] is γ-secretase. The note with it: in vivo; cited from earlier work.
In data set [13] the test system is adrenal chromaffin and human neuroblastoma cells. The note with it: cited from earlier work.
In data set [14] the test system is γ-secretase. Conditions: human, in vivo; cited from earlier work.

T2 sequence (Q05941 23-502): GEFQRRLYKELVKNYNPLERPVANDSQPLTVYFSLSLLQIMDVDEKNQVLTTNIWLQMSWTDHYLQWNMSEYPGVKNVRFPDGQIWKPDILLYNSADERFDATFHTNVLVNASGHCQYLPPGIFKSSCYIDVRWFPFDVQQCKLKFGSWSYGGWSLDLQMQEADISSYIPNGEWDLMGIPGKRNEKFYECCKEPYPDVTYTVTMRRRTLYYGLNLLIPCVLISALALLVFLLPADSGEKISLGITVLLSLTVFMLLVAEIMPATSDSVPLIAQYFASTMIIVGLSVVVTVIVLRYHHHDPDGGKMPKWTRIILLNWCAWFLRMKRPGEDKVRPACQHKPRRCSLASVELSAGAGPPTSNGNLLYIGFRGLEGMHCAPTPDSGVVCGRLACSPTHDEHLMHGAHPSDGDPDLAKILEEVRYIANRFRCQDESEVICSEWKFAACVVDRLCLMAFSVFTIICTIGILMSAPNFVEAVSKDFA

With `Oc1c(I)cc(Cl)c2cccnc12` [Clioquinol], the ADAS-cog result in [1] is given as “decreased deterioration on the ADAS-cog”.
For the molecule `O[C@H]1[C@H](O)[C@@H](O)[C@H](O)[C@@H](O)[C@@H]1O` [ELND005, scyllo-inositol], in data set [2], the “CSF Aβ and ventricular volume” value was “Significant decreases in CSF Aβ and increases in ventricular volume”; the “cognitive or behavioral tests” value is recorded as “no benefit on any cognitive or behavioral test”.
For `COc1ccc2c3c1O[C@H]1C[C@@H](O)C=C[C@@]31CCN(C)C2` [Galanthamine HBr], in [3] (5.0 μM, Mouse), the “NADPH-dependent T1/2 (half-life)” value is above 1 h and the “NADPH-free T1/2 (half-life)” value is above 1 h.
On to `CN1CCCC1c1cccnc1` (centres unmarked) [Nicotine], for which, in [4], the “protection against Aβ plus glutamate toxicity” value is “protective against Aβ plus glutamate toxicity”.
On to `CN(C)Cc1ccc2c(Cl)cc(Cl)c(O)c2n1` [PBT2], for which the “CSF Aβ42” value in the data set on patients with mild AD is given as “decreased significantly”.
Regarding `CNC(=C[N+](=O)[O-])NCCSCc1ccc(CN(C)C)o1` [Ranitidine], the “mean A−>B Papp (apparent permeability)” value in the data set on CaCo-2 cells is recorded as 1.1 10^−6 cm s^−1.
For the molecule `CCCCNC(=O)O[C@H]1C=C[C@@]23CCN(C)Cc4ccc(OC)c(c42)O[C@H]3C1` [SDL 11349, n-butylcarbamate derivative (4aS,6R,8aS)-5,6,9,10,11,12-hexahydro-3-methoxy-11-methyl-4aH-[1]benzofuro[3a,3,2-ef][2]benzazepin-6-ol], the “effect on Aβ oligomer-induced loss of neurite network” value with Rat cortical neurons (1 μM, Aβ oligomer 20 μM, 24 h) is reported as “blocked the toxic effect of the Aβ oligomers”. For the same molecule, the IC50 (commonly the concentration at which inhibition is half-maximal) at acetylcholinesterase [5] was 1.09 µM. Also, in the data set on mice, the “dose at which decreased motility appeared” value is above 30 mg/kg and the “lethality (no lethality up to)” value is reported as above 100 mg/kg. For the same molecule, the adverse effects observed entry with mice (doses of 50-100 mg/kg) was “wobbly and off-balance with rapid heart rate still present at 4 hours, but were recovered at 24 hours”. Further, the “enzymatic activity relative to galantamine” value at acetylcholinesterase [6] is on record as “about 36%”. Further, the “reduction of β-amyloid oligomer concentration in the medium” value in the data set on Bv-2 microglial cells is reported as 38-40%. The “NADPH-free T1/2 (half-life)” value in data set [3] (5.0 μM, Mouse) was above 1 h. Also, the “half-life in liver microsomes” value in data set [3] (in-vitro preparation) is listed as “greater than 60 minutes”. Besides, the microsomal CLint (commonly the rate of metabolic loss divided by the concentration) at 5 μM in [3] (liver microsomes, 5.0 μM, Mouse, read-out: NADPH-dependent CLint (microsomal intrinsic clearance)) stood at 23.5 µL/min/mg. Besides, in data set [7], the “plasma concentrations at two hours compared with galantamine” value is “slightly lower than those of galantamine” and the “stability in mouse plasma” value was “stable for greater than two hours”. The “additional time remaining in the lighted compartment versus saline” value in data set [8] (given during training, optimal performance) is “about 100 seconds”. In data set [8] (passive avoidance), the “best dose for memory enhancement” value was 0.5 mg/kg. Further, the predicted oral bioavailability in the data set with CaCo-2 cells (based on in vitro CaCo-2 permeability) was 80%. Moreover, the “mean A−>B Papp (apparent permeability)” value with CaCo-2 cells is on record as 20.8 10^−6 cm s^−1. Besides, the “enhancement of the depolarization caused by choline” value on α7 nicotinic receptors (1 μM, 1.5 mM choline) was 15.9±2.1%. In addition, the “enhancement in presence of FK-1, antibody to the galantamine recognition site” value at α7 nicotinic receptors is given as “blocked”. Also, the “total spine density, basal samples” value in data set [9] (0.005-0.2 mg/kg ip per day for five days) was “no effect”. Further, the “total spine density, apical dendritic samples, versus vehicle” value in [9] (0.005-0.2 mg/kg ip per day for five days, all dose groups) is on record as “statistically significant difference (p<0.05, 2-tailed t-test) or trend (p<.01) compared to vehicle controls”. In data set [9] (treatment for 5 days), the “mature spines on apical dendrites of CA1 pyramidal neurons” value was “specifically increases mature spines”.
For `NCCCS(=O)(=O)O` [Tramiprosate], in [10], the ADAS-cog entry is given as “trend towards improvement on the ADAS-cog” and the hippocampal volume entry is recorded as “reduction of hippocampal volume loss”.
Take `NC(=O)[C@@H](CCC(F)(F)F)N(Cc1ccc(-c2ncon2)cc1F)S(=O)(=O)c1ccc(Cl)cc1` [avagacestat]: the “CSF Aβ40” value in the data set on γ-secretase [11] (human, in vivo) was “effectively reduces CSF Aβ40”. The conversion to dementia result in the data set with γ-secretase [11] (prodromal Alzheimer's disease, reduced CSF Aβ42) was “no reduction in conversion to dementia”.
Regarding `CC(C)[C@H](O)C(=O)N[C@@H](C)C(=O)N[C@@H]1C(=O)N(C)CCc2ccccc21` [semagacestat], in the data set with γ-secretase [12], the “CSF Aβ” value is on record as “potently decreased CSF Aβ”; the “reason for termination of Phase III trials” value was “poorer performance in treated than placebo patients, and an increased incidence of skin cancer”.
For the molecule `Nc1c2c(nc3ccccc13)CCCC2` [tacrine], the neuroprotective effect result in data set [13] is on record as “did not occur”.
As for `C[C@@H](C(=O)O)c1ccc(-c2ccccc2)c(F)c1` [tarenflurbil], in the data set with γ-secretase [14], the “Phase III outcome” value is given as “failed in Phase III”.

B1: BDNF: brain-derived neurotrophic factor, positive control, gold standard of the neurite assay (protein, UniProt P23560 19-247, looked up)
Neurotrophic factor BDNF …: APMKEANIRGQGGLAYPGVRTHGTLESVNGPKAGSRGLTSLADTFEHVIEELLDEDQKVRPNEENNKDADLYTSRVMLSSQVPLEPPLLFLLEEYKNYLDAANMSMRVRRHSDPARRGELSVCDSISEWVTAADKKTAVDMSGGTVTVLEKVPVSKGQLKQYFYETKCNPMGYTKEGCRGIDKRHWNSQCRTTQSYVRALTMDSKKRIGWRFIRIDTSCVCTLTIKRGR
For B1, in the data set with Rat cortical neurons (50 ng/ml, positive control), the “effect on Aβ oligomer-induced loss of neurite network” value was “preserves the neurite network”.
